Experimental data taken from patent US4436751A, “Nitrobenzyl monates antibacterial compounds” (Beecham Group Limited, priority 1980, dated 1984).
≈ marks a conversion by molar mass, not a printed value. Read-outs that look alike come from different tables or passages of the source.

What was measured:
Type in all cases: cell-based
M. suipneumoniae NB12 = assay: Anti-mycoplasmal MIC in vitro, Friis broth agarose (Table 1); settings: Mesomycoplasma hyopneumoniae
M. suipneumoniae JF 435 = assay: as above; settings: Mesomycoplasma hyopneumoniae, JF435, 144 h
M. suipneumoniae HR(2) = assay: as above; settings: Mesomycoplasma hyopneumoniae, 144 h
[1] = test system: M. suipneumoniae J2206/183b; assay: as above; settings: Mesomycoplasma hyopneumoniae, 144 h
M. suipneumoniae TAM 6N = assay: as above; settings: Mesomycoplasma hyopneumoniae, TAM6N, 144 h
[2] = test system: M. suipneumoniae NCTC 10110; assay: as above; settings: Mesomycoplasma hyopneumoniae, NCTC10110, 144 h
M. hyorhinis ATCC 25021 = assay: as above; settings: Mesomycoplasma hyorhinis, ATCC25021, 144 h
[3] = test system: M. hyosynoviae ATOC 25591; assay: as above; settings: 144 h
M. dispar RCTC 10125 = assay: as above; settings: 144 h
M. pneumoniae ATCC 15492 = assay: as above; settings: Mycoplasmoides pneumoniae, ATCC15492, 144 h
Bacillus subtilis 6633 = assay: Human bacteria MIC, nutrient agar with chocolated horse blood (Table 3)
Protocol: (§1) The values were determined by serial dilutions in nutrient agar with 5% chocolated horse blood after incubations for 18 hours at 37° C.

[4] = test system: Corynebacterium xerosis 9755; assay: as above
Protocol: as §1

E. Coli NCTC 10418 = assay: as above; settings: Escherichia coli
Protocol: as §1

E. coli ESS = assay: as above; settings: Escherichia coli; E. coli ESS; nutrient agar 5% chocolated horse blood, 18 hours 37° C.; read-out: MIC
Protocol: as §1

[5] = test system: Haemophilus influenzae Q1; assay: as above
Protocol: as §1

K. aerogenes A = assay: as above; settings: Klebsiella aerogenes
Protocol: as §1

[6] = test system: Neisseria catarrhalis 1502; assay: as above
Protocol: as §1

P. mirabilis 889 = assay: as above
Protocol: as §1

[7] = test system: Pasteurella multocida 1633; assay: as above; settings: Pasteurella multocida 1633; nutrient agar 5% chocolated horse blood, 18 hours 37° C.; read-out: MIC
Protocol: as §1

[8] = test system: Ps. aeruginosa NCTC 10662; assay: as above; settings: Pseudomonas aeruginosa
Protocol: as §1

Sarcina lutea 8340 = assay: as above
Protocol: as §1

Staph. aureus Oxford = assay: as above; settings: Staphylococcus aureus
Protocol: as §1

Staph. aureus Russell = assay: as above; settings: Staphylococcus aureus
Protocol: as §1

Staph. aureus W2827 = assay: as above; settings: Staphylococcus aureus
Protocol: as §1

Strep. faecalis 1 = assay: as above
Protocol: as §1

[9] = test system: Strep. pyogenes R80/421-A; assay: as above; settings: Streptococcus pyogenes
Protocol: as §1

Strep. 641848-C = assay: as above; settings: Strep. 641848-C; nutrient agar 5% chocolated horse blood, 18 hours 37° C.; read-out: MIC
Protocol: as §1

[10] = M. pneumoniae ATCC 15492, in vitro, 6 days 37° C., read-out: MIC
[11] = Haemophilus influenzae Q1, nutrient agar 5% chocolated horse blood, 18 hours 37° C., read-out: MIC
[12] = Neisseria catarrhalis 1502, nutrient agar 5% chocolated horse blood, 18 hours 37° C., read-out: MIC
[13] = Staph. aureus Oxford, nutrient agar 5% chocolated horse blood, 18 hours 37° C., read-out: MIC
[14] = Staph. aureus Russell, nutrient agar 5% chocolated horse blood, 18 hours 37° C., read-out: MIC
[15] = Staph. aureus W2827, nutrient agar 5% chocolated horse blood, 18 hours 37° C., read-out: MIC
[16] = Enterococcus faecalis, Strep. faecalis 1, nutrient agar 5% chocolated horse blood, 18 hours 37° C., read-out: MIC
[17] = Strep. pyogenes R80/421-A, nutrient agar 5% chocolated horse blood, 18 hours 37° C., read-out: MIC
[18] = Corynebacterium xerosis, 9755, 18 h

C/C(=C\C(=O)OCc1cccc([N+](=O)[O-])c1)CC1OCC(CC2OC2C(C)C(C)O)C(O)C1O (stereo not drawn) [Example 2, m-nitrobenzyl monate A]
MIC (M. suipneumoniae NB12; 144 h, M. suipneumoniae NB12, in vitro, 6 days 37° C., read-out: MIC): 0.025 µg/mL (≈ 0.0521 µM) | MIC (M. suipneumoniae JF 435; M. suipneumoniae JF 435, in vitro, 6 days 37° C., read-out: MIC): 0.025 µg/mL (≈ 0.0521 µM) | MIC (M. suipneumoniae HR(2); M. suipneumoniae HR(2), in vitro, 6 days 37° C., read-out: MIC): 0.025 µg/mL (≈ 0.0521 µM) | MIC ([1]; M. suipneumoniae J2206/183b, in vitro, 6 days 37° C., read-out: MIC): 0.025 µg/mL (≈ 0.0521 µM) | MIC (M. suipneumoniae TAM 6N; M. suipneumoniae TAM 6N, in vitro, 6 days 37° C., read-out: MIC): 0.025 µg/mL (≈ 0.0521 µM) | MIC [2]: 0.025 µg/mL (≈ 0.0521 µM) | MIC (M. hyorhinis ATCC 25021; M. hyorhinis ATCC 25021, in vitro, 6 days 37° C., read-out: MIC): ≤ 0.01 µg/mL | MIC ([3]; M. hyosynoviae ATOC 25591, in vitro, 6 days 37° C., read-out: MIC): 0.025 µg/mL (≈ 0.0521 µM) | MIC (M. dispar RCTC 10125; M. dispar RCTC 10125, in vitro, 6 days 37° C., read-out: MIC): 0.01 µg/mL (≈ 0.0209 µM) | MIC (M. pneumoniae ATCC 15492; [10]): 1 µg/mL (≈ 2.09 µM) | MIC (Bacillus subtilis 6633; Bacillus subtilis 6633, nutrient agar 5% chocolated horse blood, 18 hours 37° C., read-out: MIC): 5 µg/mL (≈ 10.4 µM) | MIC ([4]; Corynebacterium xerosis 9755, nutrient agar 5% chocolated horse blood, 18 hours 37° C., read-out: MIC): > 100 µg/mL | MIC (E. Coli NCTC 10418; NCTC10418, E. coli NCTC 10418, nutrient agar 5% chocolated horse blood, 18 hours 37° C., read-out: MIC): > 100 µg/mL | MIC (E. coli ESS): 5 µg/mL (≈ 10.4 µM) | MIC [5, 11]: 2.5 µg/mL (≈ 5.21 µM) | MIC (K. aerogenes A; K. aerogenes A, nutrient agar 5% chocolated horse blood, 18 hours 37° C., read-out: MIC): > 100 µg/mL | MIC [6, 12]: 2.5 µg/mL (≈ 5.21 µM) | MIC (P. mirabilis 889; Proteus mirabilis, P. mirabilis 889, nutrient agar 5% chocolated horse blood, 18 hours 37° C., read-out: MIC): > 100 µg/mL | MIC [7]: 10 µg/mL (≈ 20.9 µM) | MIC ([8]; NCTC10662, Ps. aeruginosa NCTC 10662, nutrient agar 5% chocolated horse blood, 18 hours 37° C., read-out: MIC): > 100 µg/mL | MIC (Sarcina lutea 8340; Micrococcus luteus, Sarcina lutea 8340, nutrient agar 5% chocolated horse blood, 18 hours 37° C., read-out: MIC): > 100 µg/mL | MIC (Staph. aureus Oxford; [13]): 10 µg/mL (≈ 20.9 µM) | MIC (Staph. aureus Russell; [14]): 10 µg/mL (≈ 20.9 µM) | MIC (Staph. aureus W2827; [15]): 25 µg/mL (≈ 52.1 µM) | MIC (Strep. faecalis 1; [16]): > 100 µg/mL | MIC [9, 17]: 2.5 µg/mL (≈ 5.21 µM)

C/C(=C\C(=O)OCc1ccc([N+](=O)[O-])cc1Cl)CC1OCC(CC2OC2C(C)C(C)O)C(O)C1O (stereo not drawn) [Example 11, 2-chloro-4-nitrobenzyl monate A]
MIC (M. suipneumoniae NB12; NB12, 144 h): 1 µg/mL (≈ 1.95 µM) | MIC (M. suipneumoniae JF 435): 2.5 µg/mL (≈ 4.86 µM) | MIC (M. suipneumoniae HR(2)): 2.5 µg/mL (≈ 4.86 µM) | MIC ([1]; J2206/183B): 1 µg/mL (≈ 1.95 µM) | MIC (M. suipneumoniae TAM 6N): 2.5 µg/mL (≈ 4.86 µM) | MIC [2]: 1 µg/mL (≈ 1.95 µM) | MIC (M. hyorhinis ATCC 25021): 0.5 µg/mL (≈ 0.973 µM) | MIC [3]: 0.1 µg/mL (≈ 0.195 µM) | MIC (M. dispar RCTC 10125): 0.5 µg/mL (≈ 0.973 µM) | MIC (M. pneumoniae ATCC 15492): 2.5 µg/mL (≈ 4.86 µM) | MIC (Bacillus subtilis 6633; Bacillus subtilis, 6633, 18 h): 0.5 µg/mL (≈ 0.973 µM) | MIC [4, 18]: > 100 µg/mL | MIC (E. Coli NCTC 10418; NCTC10418, 18 h): > 100 µg/mL | MIC [5, 11]: 2.5 µg/mL (≈ 4.86 µM) | MIC (K. aerogenes A; 18 h): > 100 µg/mL | MIC ([6]; Neisseria, 1502, 18 h): 0.5 µg/mL (≈ 0.973 µM) | MIC (P. mirabilis 889; Proteus mirabilis, 889, 18 h): > 100 µg/mL | MIC [7]: 5 µg/mL (≈ 9.73 µM) | MIC ([8]; NCTC10662, 18 h): > 100 µg/mL | MIC (Sarcina lutea 8340; Micrococcus luteus, 8340, 18 h): > 100 µg/mL | MIC (Staph. aureus Oxford; 18 h): 1 µg/mL (≈ 1.95 µM) | MIC (Staph. aureus Russell; 18 h): 1 µg/mL (≈ 1.95 µM) | MIC (Staph. aureus W2827; W2827, 18 h): 1 µg/mL (≈ 1.95 µM) | MIC (Strep. 641848-C): 1 µg/mL (≈ 1.95 µM) | MIC (Strep. faecalis 1; [16]): 50 µg/mL (≈ 97.3 µM) | MIC [9, 17]: 1 µg/mL (≈ 1.95 µM)

C/C(=C\C(=O)OCc1ccccc1[N+](=O)[O-])CC1OCC(CC2OC2C(C)C(C)O)C(O)C1O (stereo not drawn) [C, O--nitrobenzyl monate A, reference compound]
MIC (M. suipneumoniae NB12; NB12, 144 h): 0.5 µg/mL (≈ 1.04 µM) | MIC (M. suipneumoniae JF 435): 0.5 µg/mL (≈ 1.04 µM) | MIC (M. suipneumoniae HR(2)): 0.5 µg/mL (≈ 1.04 µM) | MIC ([1]; J2206/183B): 0.5 µg/mL (≈ 1.04 µM) | MIC (M. suipneumoniae TAM 6N): 0.5 µg/mL (≈ 1.04 µM) | MIC [2]: 0.5 µg/mL (≈ 1.04 µM) | MIC (M. hyorhinis ATCC 25021): 0.25 µg/mL (≈ 0.521 µM) | MIC [3]: 0.25 µg/mL (≈ 0.521 µM) | MIC (M. dispar RCTC 10125): 0.1 µg/mL (≈ 0.209 µM) | MIC (M. pneumoniae ATCC 15492; [10]): 5 µg/mL (≈ 10.4 µM) | MIC (Bacillus subtilis 6633; Bacillus subtilis, 6633, 18 h): 2.5 µg/mL (≈ 5.21 µM) | MIC [4, 18]: > 100 µg/mL | MIC (E. Coli NCTC 10418; NCTC10418, 18 h): > 100 µg/mL | MIC (E. coli ESS): 2.5 µg/mL (≈ 5.21 µM) | MIC ([5]; Haemophilus influenzae, Q1, 18 h): 0.5 µg/mL (≈ 1.04 µM) | MIC (K. aerogenes A; 18 h): > 100 µg/mL | MIC [6, 12]: 1 µg/mL (≈ 2.09 µM) | MIC (P. mirabilis 889; Proteus mirabilis, 889, 18 h): > 100 µg/mL | MIC [7]: 2.5 µg/mL (≈ 5.21 µM) | MIC ([8]; NCTC10662, 18 h): > 100 µg/mL | MIC (Sarcina lutea 8340; Micrococcus luteus, 8340, 18 h): > 100 µg/mL | MIC (Staph. aureus Oxford; [13]): 2.5 µg/mL (≈ 5.21 µM) | MIC (Staph. aureus Russell; [14]): 2.5 µg/mL (≈ 5.21 µM) | MIC (Staph. aureus W2827; [15]): 5 µg/mL (≈ 10.4 µM) | MIC (Strep. faecalis 1; Enterococcus faecalis, 1, 18 h): > 100 µg/mL | MIC ([9]; R80/421A, 18 h): 0.5 µg/mL (≈ 1.04 µM)
